In the Kinase Knowledgebase extract (Sharma et al. 2016) one finds IC50 data, which are given here for 74 compounds.

Where “and” joins values, the source holds several entries; their conditions need not be identical. Equal entries are not always repeated.

For one assay, the target named is PIK3CA (human) (UniProt P42336). The assay is described as follows: Inhibition of PIK3CA Kinase Activity.
The target of assay [1] is PIK3CA (human), P42336 [Antiproliferation of PI3K Mutated BT20 Cells]. The assay is described as follows: Cell-Based Assay.
Chain of PIK3CA (human), P42336 [Antiproliferation of PI3K Mutated BT20 Cells] (P42336 whole entry, looked up, change not shown): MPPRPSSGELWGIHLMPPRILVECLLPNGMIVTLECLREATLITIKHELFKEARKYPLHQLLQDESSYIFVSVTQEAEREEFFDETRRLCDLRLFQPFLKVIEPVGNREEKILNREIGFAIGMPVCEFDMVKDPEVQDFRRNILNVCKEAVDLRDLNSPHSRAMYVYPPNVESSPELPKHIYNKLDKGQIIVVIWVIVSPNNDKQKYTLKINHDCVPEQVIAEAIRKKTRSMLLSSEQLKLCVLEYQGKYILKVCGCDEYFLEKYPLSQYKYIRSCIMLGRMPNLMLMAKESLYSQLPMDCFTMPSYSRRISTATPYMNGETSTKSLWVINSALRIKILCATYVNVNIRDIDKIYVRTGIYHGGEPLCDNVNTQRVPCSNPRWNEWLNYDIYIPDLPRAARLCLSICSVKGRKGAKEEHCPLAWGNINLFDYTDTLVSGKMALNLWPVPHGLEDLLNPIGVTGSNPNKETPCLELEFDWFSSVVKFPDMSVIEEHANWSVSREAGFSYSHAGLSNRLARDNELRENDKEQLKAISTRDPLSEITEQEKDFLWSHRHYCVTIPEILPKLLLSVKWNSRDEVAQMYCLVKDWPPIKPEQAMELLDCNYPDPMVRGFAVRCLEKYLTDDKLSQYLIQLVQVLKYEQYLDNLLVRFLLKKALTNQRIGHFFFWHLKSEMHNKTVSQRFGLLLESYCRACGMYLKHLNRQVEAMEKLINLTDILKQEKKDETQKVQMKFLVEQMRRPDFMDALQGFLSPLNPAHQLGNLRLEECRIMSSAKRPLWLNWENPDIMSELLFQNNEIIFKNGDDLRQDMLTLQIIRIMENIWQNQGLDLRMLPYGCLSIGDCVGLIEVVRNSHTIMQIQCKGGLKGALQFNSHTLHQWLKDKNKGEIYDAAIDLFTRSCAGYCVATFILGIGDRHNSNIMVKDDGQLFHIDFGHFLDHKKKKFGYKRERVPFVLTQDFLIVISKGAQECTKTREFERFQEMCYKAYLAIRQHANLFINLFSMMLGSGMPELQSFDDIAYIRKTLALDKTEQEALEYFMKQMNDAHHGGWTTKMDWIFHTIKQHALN

Chain of PIK3CA (human) (P42336 whole entry, looked up): as the sequence (P42336 whole entry, looked up, change not shown) above

Broadly, the IC50 is the concentration that inhibits the measured activity by half. As for `COc1ccc(-c2cc3c(C)nc(N)nc3n(C(C)C)c2=O)cn1`, the figures for the IC50 (against PIK3CA (human); in assay [1]) were 11 nM and 64 nM, respectively.
Taken in the same sequence, the figures for `Cc1nc(N)nc2c1cc(-c1ccc(N3CCCC3)nc1)c(=O)n2C1CCCC1` were 88 nM and 26.5 nM.
Taken in the same sequence, the figures for `Cc1nc(N)nc2c1cc(C#N)c(=O)n2C1CCC1` were 95 nM and 2090 nM.
Taken in the same sequence, the figures for `Cc1nc(N)nc2c1cc(C(=O)Nc1ccn[nH]1)c(=O)n2[C@H]1CC[C@H](O)CC1` were 0.59 nM and 28.3 nM.
In the case of `Cc1nc(N)nc2c1cc(-c1ccc3cc[nH]c3n1)c(=O)n2[C@H]1CC[C@@H](O)CC1`, the IC50 at PIK3CA (human) was 1.6 nM; in assay [1], 25.4 nM.
In the case of `CNc1nc(C)c2cc(-c3cnc4[nH]ccc4c3)c(=O)n(CC3CCOC3)c2n1` (stereo not drawn), the results for the IC50 (on PIK3CA (human); in assay [1]) were 1.6 nM and 13.5 nM, respectively.
`CCNc1nc(C)c2cc(-c3cnc(OC)c(F)c3)c(=O)n([C@H]3CC[C@H](O)CC3)c2n1`: the IC50 turned out to be 0.788 nM against PIK3CA (human) and 5.1 nM in assay [1].
Consider `CCNc1nc(C)c2cc(-c3cnc(OC)nc3)c(=O)n([C@H]3CC[C@H](O)CC3)c2n1`, for which the results for the IC50 (at PIK3CA (human); in assay [1]) were 1.59 nM and 20.6 nM, respectively.
The like results for `COc1ccc(-c2cc3c(C)nc(N)nc3n(C3CCNC3)c2=O)cn1` (stereo not drawn) were, in that order, 200 nM and 671 nM.
The like results for `COc1cccc(-c2cc3c(C)nc(N)nc3n(C3CCCC3)c2=O)c1` were, in that order, 168 nM and 622 nM.
For `CO[C@H]1CC[C@H](n2c(=O)c(Br)cc3c(C)nc(N)nc32)CC1`, the IC50 is 31 nM on PIK3CA (human) and 64 nM in assay [1].
Taken in the same sequence, the figures for `COc1ccc(-c2cc3c(C)nc(N)nc3n([C@@H]3CC[C@@H](O)C3)c2=O)cn1` were 4.6 nM and 87.6 nM.
For `CNc1nc(C)c2cc(-c3ccc(OC)nc3)c(=O)n(C(C)C)c2n1`, the IC50 on PIK3CA (human) is 110 nM and 21 nM; in assay [1], 95.2 nM.
As for `COc1ncc(-c2cc3c(C)nc(N)nc3n(C3CCCC3)c2=O)cn1`, the IC50 against PIK3CA (human) amounted to 2 nM; in assay [1] it was 9.57 nM.
Take `Cc1nc(N)nc2c1cc(Br)c(=O)n2[C@H]1CC[C@@H](O)CC1`: the figures for the IC50 (at PIK3CA (human); in assay [1]) were 130 nM and 228 nM, respectively.
For the compound `CNc1nc(C)c2cc(-c3ccc(OC)nc3)c(=O)n(C3CCC3)c2n1`, the IC50 came to 6.3 nM against PIK3CA (human) and 58.4 nM in assay [1].
The like results for `CCOc1ccc(-c2cc3c(C)nc(N)nc3n([C@H]3CC[C@H](O)CC3)c2=O)cn1` were, in that order, 2.7 nM and 21.2 nM.
Taken in the same sequence, the figures for `CNc1nc(C)c2cc(C(=O)Nc3cc[nH]n3)c(=O)n(C3CCCC3)c2n1` were 2.34 nM and 16.4 nM.
Take `COc1ccc(-c2cc3c(C)nc(N)nc3n(CCN)c2=O)cn1`: the IC50 turned out to be 340 nM at PIK3CA (human) and 4530 nM in assay [1].
Regarding `COc1cc(-c2cc3c(C)nc(N)nc3n(C3CCCC3)c2=O)ccc1O`, the values for the IC50 (against PIK3CA (human); in assay [1]) were 0.989 nM and 19 nM, respectively.
The like results for `CCN(CC)C(=O)OCn1cc(-c2cc3c(C)nc(N)nc3n(C(C)C)c2=O)nn1` were, in that order, 3300 nM and 10000 nM.
With `COc1ncc(-c2cc3c(C)nc(N)nc3n([C@H]3CC[C@H](OCC(N)=O)CC3)c2=O)cn1`, the IC50 in assay [1] came out at 51.9 nM.
For `Cc1nc(N)nc2c1cc(-c1cc[nH]n1)c(=O)n2[C@H]1CC[C@H](O)CC1`, the IC50 against PIK3CA (human) is 10 nM; in assay [1] it was 25.2 nM.
Taken in the same sequence, the figures for `CNc1nc(C)c2cc(-c3cccc(OC)c3)c(=O)n(C3CCCC3)c2n1` were 244 nM and 669 nM.
As for `COc1ncc(-c2cc3c(C)nc(N)nc3n([C@H]3CC[C@@H](OCCO)CC3)c2=O)cn1`, the IC50 was found to be 5.31 nM on PIK3CA (human) and 15.3 nM in assay [1].
Taken in the same sequence, the figures for `CNc1nc(C)c2cc(C(=O)Nc3ccon3)c(=O)n(C3CCCC3)c2n1` were 5 nM and 72.2 nM.
Taken in the same sequence, the figures for `C=CCn1c(=O)c(-c2ccc(OC)nc2)cc2c(C)nc(NC)nc21` were 17 nM and 106 nM.
The like results for `Cc1nc(N)nc2c1cc(-c1cccc(Cl)n1)c(=O)n2C1CCCC1` were, in that order, 170 nM and 3450 nM.
Regarding `Cc1nc(N)nc2c1cc(-c1ccc(N(C)C)nc1)c(=O)n2[C@H]1CC[C@H](OCCO)CC1`, the IC50 against PIK3CA (human) turned out to be 9.28 nM; in assay [1], 12.1 nM.
The like results for `Cc1nc(N)nc2c1cc(-c1cnn(CCO)c1)c(=O)n2C1CCCC1` were, in that order, 45 nM and 495 nM.
The like results for `CO[C@H]1CC[C@H](n2c(=O)c(-c3cc[nH]n3)cc3c(C)nc(N)nc32)CC1` were, in that order, 9.5 nM and 17.2 nM.
For `CCn1nccc1NC(=O)c1cc2c(C)nc(N)nc2n(C(C)C)c1=O`, the IC50 on PIK3CA (human) was 3.9 nM.
`COc1ccc(-c2cc3c(C)nc(N)nc3n(C3CCCC3)c2=O)cc1F`: the IC50 on PIK3CA (human) is 15 nM; in assay [1], 45.9 nM.
Taken in the same sequence, the figures for `COc1ncc(-c2cc3c(C)nc(N)nc3n([C@H]3C[C@H](OCCO)C3)c2=O)cn1` were 6.65 nM and 93.5 nM.
As for `CCNc1nc(C)c2cc(CCC(=O)OCC)c(=O)n(C3CCCC3)c2n1`, the figures for the IC50 (against PIK3CA (human); in assay [1]) were 5500 nM and 10000 nM, respectively.
Taken in the same sequence, the figures for `CCNc1nc(C)c2cc(CCC(=O)Nc3ncc[nH]3)c(=O)n(C3CCCC3)c2n1` were 310 nM and 5710 nM.
For `COc1ccc(-c2cc3c(C)nc(N)nc3n([C@H]3CC[C@H](OC)CC3)c2=O)cn1`, the IC50 at PIK3CA (human) was 3.9 nM; in assay [1], 7.37 nM.
Consider `COc1ccc(-c2cc3c(C)nc(NCC(F)F)nc3n([C@H]3CC[C@H](O)CC3)c2=O)cn1`, for which the results for the IC50 (on PIK3CA (human); in assay [1]) were 12 nM and 46.8 nM, respectively.
`COc1ccc(-c2cc3c(C)nc(N)nc3n(C3CC3)c2=O)cn1` showed an IC50 on PIK3CA (human) of 56 nM.
For `CNc1nc(C)c2cc(-c3cncnc3)c(=O)n(C3CCCC3)c2n1`, the IC50 on PIK3CA (human) amounted to 23 nM; in assay [1], 305 nM.
Turning to `Cc1nc(N)nc2c1cc(-c1cnc3[nH]ccc3c1)c(=O)n2C1CCOCC1`, the IC50 was found to be 3.7 nM against PIK3CA (human) and 15.3 nM in assay [1].
Taken in the same sequence, the figures for `Cc1nc(N)nc2c1cc(-c1cnc3[nH]ccc3c1)c(=O)n2C1CCCC1` were 0.48 nM and 2.76 nM.
Taken in the same sequence, the figures for `Cc1nc(N)nc2c1cc(-c1cccc(O)c1)c(=O)n2C1CCCC1` were 0.524 nM and 4.84 nM.
On to `CCNc1nc(C)c2cc(-c3cccnc3N)c(=O)n(C3CCCC3)c2n1`, for which the half-inhibitory concentration (IC50) on PIK3CA (human) amounted to 3400 nM; in assay [1], 7980 nM.
The like results for `Cc1nc(N)nc2c1cc(-c1cnn(C(=O)OC(C)(C)C)c1)c(=O)n2N1CCCC1` were, in that order, 93 nM and 5.08 nM.
In the case of `Cc1nc(N)nc2c1cc(Br)c(=O)n2CC(C)(C)O`, the IC50 against PIK3CA (human) worked out at 680 nM; in assay [1], 2360 nM.
The like results for `CNc1nc(C)c2cc(-c3ncccc3F)c(=O)n(C3CCCC3)c2n1` were, in that order, 2100 nM and 8300 nM.
Taken in the same sequence, the figures for `Cc1nc(N)nc2c1cc(-c1cn[nH]c1)c(=O)n2[C@H]1CC[C@H](OCCO)CC1` were 7.58 nM and 33.5 nM.
On to `Cc1nc(N)nc2c1cc(-c1ccccc1)c(=O)n2Cc1ccc(Cl)cc1`, for which the IC50 against PIK3CA (human) was determined as 1400 nM. That is a single-digit micromolar value.
Turning to `COc1ccc(-c2cc3c(C)nc(N)nc3n([C@H]3C[C@H](OCC(N)=O)C3)c2=O)cn1`, the IC50 was determined as 4.72 nM at PIK3CA (human) and 33.5 nM in assay [1].
Consider `Cc1nc(N)nc2c1cc(Br)c(=O)n2C1CCC(=O)CC1`, for which the IC50 against PIK3CA (human) amounted to 110 nM; in assay [1] it was 211 nM.
The like results for `Cc1nc(N)nc2c1cc(-c1cnn(C)c1)c(=O)n2C1CCCC1` were, in that order, 32 nM and 623 nM.
On to `Cc1nc(N)nc2c1cc(-c1cccnc1N)c(=O)n2C1CCCC1`, for which the IC50 against PIK3CA (human) stood at 1430 nM; in assay [1], 9010 nM.
`Cc1nc(N)nc2c1cc(-c1cn[nH]c1)c(=O)n2C1CC1` displayed an IC50 against PIK3CA (human) of 78 nM.
Same read-out and setting: the figure for `COc1ncc(-c2cc3c(C)nc(N)nc3n([C@H]3CC[C@@H](OCCO)CC3)c2=O)cc1F` is 2.6 nM.
On to `Cc1nc(NCC(C)(C)O)nc2c1cc(-c1cccc(O)c1)c(=O)n2C1CCCC1`, for which the IC50 in assay [1] is 1180 nM.
With `COc1ccc(-c2cc3c(C)nc(N)nc3n(N3CCCC3)c2=O)cn1`, the IC50 against PIK3CA (human) was 23 nM.
`COc1ccc(-c2cc3c(C)nc(N)nc3n([C@H]3CC[C@@H](O)CC3)c2=O)cn1`: in assay [1], the IC50 stood at 19 nM.
Same read-out and setting: the figure for `CCNc1nc(C)c2cc(CCC(=O)N(CC)CC)c(=O)n(C3CCCC3)c2n1` is 10000 nM.
In the case of `COc1ncc(-c2cc3c(C)nc(N)nc3n(C3CCOCC3)c2=O)cc1F`, on PIK3CA (human), the IC50 was found to be 1.43 nM.
Consider `CCNc1nc(C)c2cc(CCC(=O)N(C)C)c(=O)n(C3CCCC3)c2n1`, for which the IC50 in assay [1] is 10000 nM.
Consider `CCn1cc(CNC(=O)c2cc3c(C)nc(NC)nc3n(C3CCCC3)c2=O)cn1`, for which the IC50 against PIK3CA (human) is 1200 nM.
In assay [1], `CCNc1nc(C)c2cc(CCC(=O)Nc3ccccn3)c(=O)n(C3CCCC3)c2n1` returned an IC50 of 10000 nM. That is a double-digit micromolar value.
Still for that read-out and setting: the figure for `COc1ncc(-c2cc3c(C)nc(N)nc3n([C@H]3CC[C@@H](OCC(N)=O)CC3)c2=O)cn1` is 82.9 nM; for `CNc1nc(C)c2cc(-c3cc(CN)ccc3F)c(=O)n(C3CCCC3)c2n1` it is 10000 nM; for `COc1ccc(-c2cc3c(C)nc(N)nc3n(C3CCOCC3)c2=O)cn1` it is 71.4 nM.
In assay [1], `COc1ccc(-c2cc3c(C)nc(N)nc3n([C@H]3CC[C@H](O)CC3)c2=O)cn1` yielded an IC50 of 3.6 nM.
Take `COc1ccc(Cn2c(=O)c(-c3ccccc3)cc3c(C)nc(N)nc32)cc1`: the IC50 at PIK3CA (human) stood at 310 nM. That is a sub-micromolar value.
For `Cc1nc(N)nc2c1cc(-c1cnc3ccccc3c1)c(=O)n2CC(C)(C)O`, the IC50 in assay [1] was found to be 322 nM.
On the same count and under the same terms, the figure for `Cc1nc(N)nc2c1cc(-c1cn[nH]c1)c(=O)n2C1CCCC1` is 3.49 nM.
Regarding `Cc1nc(N)nc2c1cc(-c1ccncc1)c(=O)n2Cc1ccc(Cl)cc1`, the IC50 at PIK3CA (human) was determined as 4900 nM.
`COc1ccc(-c2cc3c(C)nc(N)nc3n([C@H]3CC[C@@H](OCC(N)=O)CC3)c2=O)cn1`: in assay [1], the IC50 is 20.5 nM.
The same measure, in the same setting: the figure for `COc1ccc(-c2cc3c(C)nc(N)nc3n([C@H]3CC[C@H](OCC(N)=O)CC3)c2=O)cn1` is 19.3 nM.
`Cc1nc(N)nc2c1cc(-c1cn[nH]c1)c(=O)n2N1CCCC1`: at PIK3CA (human), the IC50 amounted to 28 nM. That is a double-digit nanomolar value.
